Source: patent US20230417767A1, “COMPOSITIONS AND METHODS FOR THE DIAGNOSIS AND TREATMENT OF AGE-RELATED MACULAR DEGENERATION” (Georgetown University, priority 2016, published 2023)

What was measured:
APOE = APOE expression in retina of mice fed high fat diet containing compound; type: in vivo; conditions: compound in high fat diet (telmisartan, UPF 0.001%; fenofibrate 0.1%), 11 weeks, FIG. 22
Description: (§1) Quantitative Real-Time Polymerase Chain Reaction Analyses. Total RNA was extracted with the RNeasy kit (Qiagen), treated with RNase-free DNase I (Qiagen), and reverse transcribed with oligo-dT using the SuperScript III cDNA synthesis kit (Invitrogen). Quantitative PCR was performed with the QuantiTect SYBR Green PCR Kit (Qiagen). Specific primers for each gene were designed with the PrimerQuest software (Integrated DNA Technologies), and the cDNA sequences of each gene (GenBank) were used to produce 100-250 bp PCR amplicons that span one or more exon/intron boundaries.
(§2) The HET mice described in Example 2 were administered various compounds to determine the effects of these compounds on the development of AMD. In the High Fat Diet (HFD) experiments, 5 wild type (WT) mice, 5 PGC-1α+/−mice, 5 PGC-1α−/−mice at 2 months old with C57BL/6 background were fed with regular diet (RD) or high fat diet for 16 weeks. […]
(§3) To test the effects of telmisartan, fenofibrate and UPF 1069 on mice, 5 wild type (WT) mice, 5 PGC-1α+/−mice, 5 PGC-1α−/−mice at 2 months old were administrated with RD, HFD, or HFD (Testdiet, 5015) containing one of the three compounds. […] 11 weeks after beginning of administration of the compounds, the mice were sacrificed, the body weight was measured, the eyes were enucleated, with the retinas being extracted and processed for RNA isolation. […]

PGC-1α [1] = assay: PGC-1α gene expression in retinal pigment epithelium (RPE); type: cell-based, human; conditions: FIG. 16A-C
From the text: (§4) FIGS. 1-3 show various representations of an in vitro disease model of AMD. A total of 10 eyes from 5 organ donors clinically diagnosed with dry AMD and 10 eyes from 5 clinically normal donors were purchased from Lions Medical Eye Bank. RPE were isolated according to established protocols (Maminishkis et al., 2006) and cultured in Epithelial Cell Media (EpiCM, ScienCell) under controlled oxygen (5%) and CO2 (5%) conditions. Studies have shown that low (physiological) oxygen concentration promotes RPE growth (Knorr et al., 1993) and better protects from ROS-induced damage in vitro. RPE were then purified with Magnetic-Activated Cell Sorting (MACS) by positive selection for epithelial cells using anti-BEST1 antibody (Abcam) and anti-E-cadherin (Miltenyi Biotech); and by negative selection using a fibroblast-specific antibody (Miltenyi Biotech) to remove fibroblasts. The purity of the sorted cells was confirmed by immunostaining with anti-ZO-1 and anti-BEST1, and Real-Time PCR for RPE specific genes. The RPE cells were grown in Epithelial Cell Media (EpiCM, ScienCell) at 37° C., with 5% O2 and 5% CO2. […] Skin fibroblasts from a dry AMD patient were used to generate iPSC-RPE. Genotyping of the donors and the patient is represented in FIG. 3.
(§5) Quantitative Real-Time Polymerase Chain Reaction Analyses. […] Quantitative PCR was performed with the QuantiTect SYBR Green PCR Kit (Qiagen). […]

PGC-1α [2] = assay: PGC-1α gene expression in mice fed high fat diet containing compound; type: in vivo; conditions: compound in high fat diet (telmisartan, UPF 0.001%; fenofibrate 0.1%), 11 weeks, FIG. 24
Description: as §1, §2, §3

APP = APP expression in retina of mice fed high fat diet containing compound; type: in vivo; conditions: compound in high fat diet (telmisartan, UPF 0.001%; fenofibrate 0.1%), 11 weeks, FIG. 21
Description: as §1, §2, §3

AMD RPE = assay: Cell viability of AMD RPE under oxidative stress; type: cell-based, human; conditions: FIG. 16E-G
Description: RPE were cultured at 80-90% confluency in 96-well plates, at 37° C. with 5% O2 and 5% CO2. Oxidative stress was induced with different concentrations of H2O2 ranging from 0-10 mM for 24 or 48 hrs, followed by cell viability measurements. Cell viability was measured following a 30 min incubation with the PestoBlue Reagent (Life Technologies) of RPE monolayers cultured on 96-well plates, 6 wells used for each sample. Fluorescence measurements were performed using an Ultra384 plate reader with 535 nm excitation and 612 nm emission wavelengths.

[3] = system: Acyl-CoA Dehydrogenase (ACADM); assay: Acyl-CoA Dehydrogenase (ACADM) expression in RPE; type: cell-based, human; conditions: FIG. 16A-C
From the text: as §4, §5

APOB = APOB expression in retina of mice fed high fat diet containing compound; type: in vivo; conditions: PGC-1α+/− (HET) mice; compound in high fat diet (telmisartan, UPF 0.001%; fenofibrate 0.1%), 11 weeks; FIG. 20
Description: as §1, §2, §3

APOJ = APOJ expression in retina of mice fed high fat diet containing compound; type: in vivo; conditions: genotype (WT or HET) not stated; telmisartan 0.001% in high fat diet, 11 weeks; FIG. 23A
Description: as §1, §2, §3

AMPK = AMPK phosphorylation in RPE; type: cell-based, human; conditions: FIG. 16D
From the text: as §4, with “Genotyping of the donors and the patient is represented in FIG. 3.” left out
Immunoblot analysis. […] Protein concentrations were measured by Bradford assay (Bio-Rad). Protein samples were analyzed using the NuPAGE electrophoresis and XCell Western blot system (Invitrogen). […]

Compound: CCCc1nc2c(C)cc(-c3nc4ccccc4n3C)cc2n1Cc1ccc(-c2ccccc2C(=O)O)cc1 [telmisartan]
- APOE levels in the retina (APOE; PGC-1α+/− (HET) mice): significantly reduce
- APOE levels in the retina (APOE; WT mice): significantly reduce
- PGC-1α expression (PGC-1α [1]; AMD RPE): increasing
- PGC-1α expression (PGC-1α [1]; normal (control) RPE): increasing
- PGC-1α expression (PGC-1α [2]; PGC-1α+/− (HET) mice): significantly Increase
- PGC-1α expression (PGC-1α [2]; WT mice): significantly increased
- APP levels in the retina (APP; PGC-1α+/− (HET) mice): unable to decrease
- APP levels in the retina (APP; WT mice): significant increase
- cell viability under oxidative stress (AMD RPE): increasing
- Acyl-CoA Dehydrogenase (ACADM) expression ([3]; AMD RPE): increasing
- Acyl-CoA Dehydrogenase (ACADM) expression ([3]; normal (control) RPE): increasing
- APOB levels in the retina (APOB): significantly reduce
- APOJ levels (APOJ): did not reduce
- AMPK phosphorylation (AMPK; AMD RPE): inducing
- AMPK phosphorylation (AMPK; normal (control) RPE): inducing

Compound: O=C(O)c1cc(C(=O)O)c2c(n1)C(=O)C(=O)c1cc(C(=O)O)[nH]c1-2 [PQQ, pyrroloquinoline quinone]
- cell viability under oxidative stress (AMD RPE): increasing
